Reference: publication PMC5053573, “Structure-Based Design of Tetrahydroisoquinoline-7-carboxamides as Selective Discoidin Domain Receptor 1 (DDR1) Inhibitors” (Journal of Medicinal Chemistry, 2016)

What was measured:
Experiment in all cases: biochemical
Settings in all cases: read-out: %Ctrl @ 1000nM
[1] = target: JAK1(JH1domain-catalytic) (Homo sapiens, UniProt P23458)
EPHA7 = EPHA7 (Homo sapiens, UniProt Q15375)
MET(M1250T) = MET(M1250T) (Homo sapiens, UniProt P08581, M1250T)
DYRK1A = DYRK1A (Homo sapiens, UniProt Q13627)
SRPK2 = SRPK2 (Homo sapiens, UniProt P78362)
MYO3A = MYO3A (Homo sapiens, UniProt Q8NEV4)
CLK3 = CLK3 (Homo sapiens, UniProt P49761)
MAP4K5 = MAP4K5 (Homo sapiens, UniProt Q9Y4K4)
PRKCH = PRKCH (Homo sapiens, UniProt P24723)
FLT3(R834Q) = FLT3(R834Q) (Homo sapiens, UniProt P36888, R834Q)
EPHA5 = EPHA5 (Homo sapiens, UniProt P54756)
AURKA = AURKA (Homo sapiens, UniProt O14965)
SRC = SRC (Homo sapiens, UniProt P12931)
CTK = target: T1, CTK (Homo sapiens, UniProt P42679)
T1 construct: gene MATK

EGFR(L747-T751del,Sins) = EGFR(L747-T751del,Sins) (Homo sapiens, UniProt P00533, DEL747-750/T751S)
FLT3(D835V) = FLT3(D835V) (Homo sapiens, UniProt P36888, D835V)
MKK7 = target: T2, MKK7 (Homo sapiens, UniProt O14733)
T2 construct: gene MAP2K7

MST3 = target: T3, MST3 (Homo sapiens, UniProt Q9Y6E0)
T3 construct: gene STK24

[2] = target: RPS6KA5(Kin.Dom.2-C-terminal) (Homo sapiens, UniProt O75582)
OSR1 = target: T4, OSR1 (Homo sapiens, UniProt O95747)
T4 construct: gene OXSR1

PAK3 = PAK3 (Homo sapiens, UniProt O75914)
PRKD1 = PRKD1 (Homo sapiens, UniProt Q15139)
SRPK3 = SRPK3 (Homo sapiens, UniProt Q9UPE1)
IKK-epsilon = target: T5, IKK-epsilon (Homo sapiens, UniProt Q14164)
T5 construct: gene IKBKE

HASPIN = HASPIN (Homo sapiens, UniProt Q8TF76)
BLK = BLK (Homo sapiens, UniProt P51451)
PIK3CA(Q546K) = PIK3CA(Q546K) (Homo sapiens, UniProt P42336, Q546K)
CHEK1 = CHEK1 (Homo sapiens, UniProt O14757)
TNIK = TNIK (Homo sapiens, UniProt Q9UKE5)
MAP3K1 = MAP3K1 (Homo sapiens, UniProt Q13233)
EIF2AK1 = EIF2AK1 (Homo sapiens, UniProt Q9BQI3)
MYLK2 = MYLK2 (Homo sapiens, UniProt Q9H1R3)
PHKG2 = PHKG2 (Homo sapiens, UniProt P15735)
SGK = target: T6, SGK (Homo sapiens, UniProt O00141)
T6 construct: gene SGK1

MAPKAPK5 = MAPKAPK5 (Homo sapiens, UniProt Q8IW41)

Chain of RPS6KA5(Kin.Dom.2-C-terminal) (O75582 whole entry): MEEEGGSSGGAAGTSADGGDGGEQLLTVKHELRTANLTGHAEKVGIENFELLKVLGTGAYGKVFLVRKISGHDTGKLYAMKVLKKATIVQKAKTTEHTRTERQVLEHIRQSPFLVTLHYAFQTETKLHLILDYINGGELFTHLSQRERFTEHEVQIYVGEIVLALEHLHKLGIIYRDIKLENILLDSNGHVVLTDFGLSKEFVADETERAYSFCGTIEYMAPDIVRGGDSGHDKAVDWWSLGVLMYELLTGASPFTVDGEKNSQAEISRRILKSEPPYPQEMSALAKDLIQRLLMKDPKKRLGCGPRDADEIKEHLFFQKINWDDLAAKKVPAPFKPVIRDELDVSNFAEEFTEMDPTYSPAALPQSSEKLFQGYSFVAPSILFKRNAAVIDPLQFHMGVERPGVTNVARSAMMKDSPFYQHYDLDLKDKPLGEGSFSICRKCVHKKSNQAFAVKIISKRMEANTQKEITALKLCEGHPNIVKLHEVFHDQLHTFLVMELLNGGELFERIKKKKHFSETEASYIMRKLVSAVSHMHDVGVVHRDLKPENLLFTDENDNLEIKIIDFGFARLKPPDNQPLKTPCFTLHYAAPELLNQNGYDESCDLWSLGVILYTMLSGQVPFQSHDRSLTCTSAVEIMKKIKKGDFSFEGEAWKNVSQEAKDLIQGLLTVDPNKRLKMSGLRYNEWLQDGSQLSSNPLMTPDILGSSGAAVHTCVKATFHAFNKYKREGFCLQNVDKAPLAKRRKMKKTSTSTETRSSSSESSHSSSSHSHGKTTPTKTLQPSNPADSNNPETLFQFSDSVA
Chain of MYLK2 (Q9H1R3 whole entry): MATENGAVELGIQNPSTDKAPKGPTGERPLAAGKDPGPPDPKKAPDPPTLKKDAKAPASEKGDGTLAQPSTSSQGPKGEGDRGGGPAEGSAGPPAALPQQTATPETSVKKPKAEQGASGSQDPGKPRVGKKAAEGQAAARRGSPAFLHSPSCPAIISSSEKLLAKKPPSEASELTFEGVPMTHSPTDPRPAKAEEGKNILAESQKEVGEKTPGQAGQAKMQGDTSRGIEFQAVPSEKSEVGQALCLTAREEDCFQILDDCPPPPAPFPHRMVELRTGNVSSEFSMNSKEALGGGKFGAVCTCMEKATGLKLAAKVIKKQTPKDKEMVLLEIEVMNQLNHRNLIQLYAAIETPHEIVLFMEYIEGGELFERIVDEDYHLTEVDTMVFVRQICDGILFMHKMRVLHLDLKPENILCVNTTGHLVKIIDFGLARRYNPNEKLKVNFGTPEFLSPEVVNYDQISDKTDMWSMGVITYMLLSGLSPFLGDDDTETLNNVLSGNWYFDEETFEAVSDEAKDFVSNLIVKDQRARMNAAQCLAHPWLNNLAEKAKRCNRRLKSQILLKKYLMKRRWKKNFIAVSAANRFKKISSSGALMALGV
Chain of CLK3 (P49761 whole entry): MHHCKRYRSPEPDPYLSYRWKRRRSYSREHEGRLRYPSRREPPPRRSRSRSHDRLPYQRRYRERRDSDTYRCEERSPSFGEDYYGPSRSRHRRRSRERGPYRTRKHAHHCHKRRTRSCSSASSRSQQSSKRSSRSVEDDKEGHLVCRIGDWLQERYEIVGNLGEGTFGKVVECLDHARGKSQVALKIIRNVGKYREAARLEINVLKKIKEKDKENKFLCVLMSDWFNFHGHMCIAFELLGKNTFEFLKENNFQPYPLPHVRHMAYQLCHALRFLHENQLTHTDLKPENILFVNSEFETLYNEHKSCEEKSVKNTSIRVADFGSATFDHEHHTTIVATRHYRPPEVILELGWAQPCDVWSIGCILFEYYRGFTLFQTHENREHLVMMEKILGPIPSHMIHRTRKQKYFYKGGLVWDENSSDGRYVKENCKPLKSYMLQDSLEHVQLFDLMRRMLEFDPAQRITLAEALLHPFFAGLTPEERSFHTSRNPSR
Chain of MAP4K5 (Q9Y4K4 whole entry): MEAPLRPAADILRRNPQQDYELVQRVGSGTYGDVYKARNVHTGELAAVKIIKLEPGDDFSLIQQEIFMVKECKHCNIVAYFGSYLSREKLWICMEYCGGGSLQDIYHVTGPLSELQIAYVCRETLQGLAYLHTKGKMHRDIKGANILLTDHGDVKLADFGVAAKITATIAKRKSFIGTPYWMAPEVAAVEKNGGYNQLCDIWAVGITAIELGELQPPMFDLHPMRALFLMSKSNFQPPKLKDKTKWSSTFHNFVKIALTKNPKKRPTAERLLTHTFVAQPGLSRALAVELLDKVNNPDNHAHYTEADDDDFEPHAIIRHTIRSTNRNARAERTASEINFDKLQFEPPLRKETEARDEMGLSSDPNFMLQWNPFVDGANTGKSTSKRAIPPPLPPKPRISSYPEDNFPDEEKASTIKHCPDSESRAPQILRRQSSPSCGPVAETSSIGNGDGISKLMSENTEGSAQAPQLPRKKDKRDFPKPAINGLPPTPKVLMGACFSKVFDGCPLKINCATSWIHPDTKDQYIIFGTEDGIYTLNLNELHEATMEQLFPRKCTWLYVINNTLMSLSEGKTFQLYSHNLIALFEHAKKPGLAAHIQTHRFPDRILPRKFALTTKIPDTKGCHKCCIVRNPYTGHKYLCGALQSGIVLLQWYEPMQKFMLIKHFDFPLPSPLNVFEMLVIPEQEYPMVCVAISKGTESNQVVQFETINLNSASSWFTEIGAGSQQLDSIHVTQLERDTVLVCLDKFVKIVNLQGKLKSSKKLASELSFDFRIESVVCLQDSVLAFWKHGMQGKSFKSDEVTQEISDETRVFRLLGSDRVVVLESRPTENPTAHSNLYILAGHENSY
T1 sequence (P42679 whole entry): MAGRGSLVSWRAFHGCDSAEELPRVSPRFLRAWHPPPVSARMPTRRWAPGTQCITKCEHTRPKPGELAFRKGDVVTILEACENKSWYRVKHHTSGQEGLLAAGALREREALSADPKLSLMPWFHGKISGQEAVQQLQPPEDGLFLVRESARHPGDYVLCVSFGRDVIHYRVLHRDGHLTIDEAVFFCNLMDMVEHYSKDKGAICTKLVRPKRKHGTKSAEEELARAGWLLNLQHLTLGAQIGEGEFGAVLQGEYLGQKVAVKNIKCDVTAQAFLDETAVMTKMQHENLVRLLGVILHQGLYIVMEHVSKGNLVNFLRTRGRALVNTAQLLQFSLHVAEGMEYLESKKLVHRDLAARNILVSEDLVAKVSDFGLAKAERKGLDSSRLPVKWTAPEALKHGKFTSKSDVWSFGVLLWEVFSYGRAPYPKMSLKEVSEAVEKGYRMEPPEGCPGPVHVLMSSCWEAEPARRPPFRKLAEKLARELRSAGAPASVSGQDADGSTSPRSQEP
Chain of MET(M1250T) (P08581 whole entry M1250T): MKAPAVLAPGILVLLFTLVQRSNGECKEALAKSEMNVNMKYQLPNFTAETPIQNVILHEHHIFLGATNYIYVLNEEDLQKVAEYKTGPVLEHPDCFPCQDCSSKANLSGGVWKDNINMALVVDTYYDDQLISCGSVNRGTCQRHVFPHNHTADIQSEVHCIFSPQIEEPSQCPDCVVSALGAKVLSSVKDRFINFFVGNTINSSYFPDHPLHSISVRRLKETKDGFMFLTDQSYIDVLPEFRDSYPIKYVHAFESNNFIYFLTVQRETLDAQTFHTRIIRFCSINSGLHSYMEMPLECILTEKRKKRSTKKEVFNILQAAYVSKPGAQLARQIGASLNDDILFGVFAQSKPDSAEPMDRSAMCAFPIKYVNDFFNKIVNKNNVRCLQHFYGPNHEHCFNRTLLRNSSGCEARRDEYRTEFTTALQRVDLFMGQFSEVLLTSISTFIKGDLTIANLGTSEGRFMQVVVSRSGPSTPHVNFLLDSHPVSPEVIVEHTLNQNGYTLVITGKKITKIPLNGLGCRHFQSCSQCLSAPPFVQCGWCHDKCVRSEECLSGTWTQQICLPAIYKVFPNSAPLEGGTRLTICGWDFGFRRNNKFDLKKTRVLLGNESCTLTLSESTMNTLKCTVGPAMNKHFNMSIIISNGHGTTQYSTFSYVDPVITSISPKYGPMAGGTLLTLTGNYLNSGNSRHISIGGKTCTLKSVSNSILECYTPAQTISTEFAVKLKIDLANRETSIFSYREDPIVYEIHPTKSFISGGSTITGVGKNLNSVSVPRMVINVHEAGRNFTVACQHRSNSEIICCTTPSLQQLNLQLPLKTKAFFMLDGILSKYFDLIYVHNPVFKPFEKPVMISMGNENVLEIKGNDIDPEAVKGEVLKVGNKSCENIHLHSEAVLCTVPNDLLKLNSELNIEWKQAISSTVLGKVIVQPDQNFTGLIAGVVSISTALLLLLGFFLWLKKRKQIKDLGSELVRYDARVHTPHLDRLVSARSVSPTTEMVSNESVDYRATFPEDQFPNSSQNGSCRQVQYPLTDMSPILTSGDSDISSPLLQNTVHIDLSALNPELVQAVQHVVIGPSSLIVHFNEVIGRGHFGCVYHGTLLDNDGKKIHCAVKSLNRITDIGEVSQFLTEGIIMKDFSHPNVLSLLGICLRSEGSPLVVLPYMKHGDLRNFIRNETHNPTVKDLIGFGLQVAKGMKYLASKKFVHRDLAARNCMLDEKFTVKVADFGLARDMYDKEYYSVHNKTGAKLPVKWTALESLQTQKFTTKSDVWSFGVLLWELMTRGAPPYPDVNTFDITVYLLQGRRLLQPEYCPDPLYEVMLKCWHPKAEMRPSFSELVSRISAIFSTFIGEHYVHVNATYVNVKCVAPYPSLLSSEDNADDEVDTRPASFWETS
T2 sequence (O14733 whole entry): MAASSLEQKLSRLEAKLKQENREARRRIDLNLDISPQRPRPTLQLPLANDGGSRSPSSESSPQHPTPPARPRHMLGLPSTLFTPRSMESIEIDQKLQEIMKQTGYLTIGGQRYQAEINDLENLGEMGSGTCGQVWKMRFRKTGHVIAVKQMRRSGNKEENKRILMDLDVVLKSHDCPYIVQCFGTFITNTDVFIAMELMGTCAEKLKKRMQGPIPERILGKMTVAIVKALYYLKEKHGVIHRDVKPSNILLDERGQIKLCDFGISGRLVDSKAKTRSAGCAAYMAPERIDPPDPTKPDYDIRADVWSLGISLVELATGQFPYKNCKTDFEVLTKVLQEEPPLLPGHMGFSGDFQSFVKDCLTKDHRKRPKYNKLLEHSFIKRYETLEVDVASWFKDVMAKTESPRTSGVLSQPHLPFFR

**Q.** For `Cc1cn(-c2cc(NC(=O)c3ccc4c(c3)CN(c3cncnc3)C[C@@H]4C)cc(C(F)(F)F)c2)cn1` [Compound 6j], which remaining activity at 1 µM [1] is on record?
**A.** 100%

**Q.** And the remaining activity at 1 µM (EPHA7)?
**A.** 62%

**Q.** And the remaining activity at 1 µM (MET(M1250T))?
**A.** 84%

**Q.** What about the remaining activity at 1 µM (DYRK1A) of the same compound?
**A.** 100%

**Q.** What about the remaining activity at 1 µM (SRPK2) of the same compound?
**A.** 100%

**Q.** And the remaining activity at 1 µM (MYO3A)?
**A.** 93%

**Q.** And the remaining activity at 1 µM (CLK3)?
**A.** 95%

**Q.** What about the remaining activity at 1 µM (MAP4K5) of the same compound?
**A.** 95%

**Q.** What about the remaining activity at 1 µM (PRKCH) of the same compound?
**A.** 97%

**Q.** And the remaining activity at 1 µM (FLT3(R834Q))?
**A.** 86%

**Q.** And the remaining activity at 1 µM (EPHA5)?
**A.** 74%

**Q.** What about the remaining activity at 1 µM (AURKA) of the same compound?
**A.** 96%

**Q.** What about the remaining activity at 1 µM (SRC) of the same compound?
**A.** 94%

**Q.** And the remaining activity at 1 µM (CTK)?
**A.** 100%

**Q.** And the remaining activity at 1 µM (EGFR(L747-T751del,Sins))?
**A.** 97%

**Q.** And the remaining activity at 1 µM (FLT3(D835V))?
**A.** 48%

**Q.** And the remaining activity at 1 µM (MKK7)?
**A.** 100%

**Q.** What about the remaining activity at 1 µM (MST3) of the same compound?
**A.** 64%

**Q.** And the remaining activity at 1 µM [2]?
**A.** 100%

**Q.** What about the remaining activity at 1 µM (OSR1) of the same compound?
**A.** 100%

**Q.** What about the remaining activity at 1 µM (PAK3) of the same compound?
**A.** 79%

**Q.** And the remaining activity at 1 µM (PRKD1)?
**A.** 95%

**Q.** What about the remaining activity at 1 µM (SRPK3) of the same compound?
**A.** 93%

**Q.** And the remaining activity at 1 µM (IKK-epsilon)?
**A.** 86%

**Q.** And the remaining activity at 1 µM (HASPIN)?
**A.** 100%

**Q.** What about the remaining activity at 1 µM (BLK) of the same compound?
**A.** 68%

**Q.** And the remaining activity at 1 µM (PIK3CA(Q546K))?
**A.** 100%

**Q.** What about the remaining activity at 1 µM (CHEK1) of the same compound?
**A.** 96%

**Q.** And the remaining activity at 1 µM (TNIK)?
**A.** 86%

**Q.** What about the remaining activity at 1 µM (MAP3K1) of the same compound?
**A.** 95%

**Q.** What about the remaining activity at 1 µM (EIF2AK1) of the same compound?
**A.** 92%

**Q.** And the remaining activity at 1 µM (MYLK2)?
**A.** 100%

**Q.** What about the remaining activity at 1 µM (PHKG2) of the same compound?
**A.** 79%

**Q.** And the remaining activity at 1 µM (SGK)?
**A.** 100%

**Q.** And the remaining activity at 1 µM (MAPKAPK5)?
**A.** 100%
